target: T1, human B1R (Homo sapiens, UniProt P46663); test: Functional assay at bradykinin receptor 1 (B1R): Ca2+ fluorescence (Fluo-4) in FLIPR/Novostar, antagonist mode; type: cell-based; conditions: test substance 10 µM; CHO K1 cells stably transfected with human B1R gene (hB1R-Zellen); agonist Lys-Des-Arg9-Bradykinin at EC80; % inhibition relative to maximal achievable inhibition; read-out: % Inhibierung (human B1R) bei 10 µM
T1 construct: expressed in transfected cells; host or cells: CHO K1 cells (Chinese Hamster Ovary), stably transfected
T1 sequence (P46663 1-353): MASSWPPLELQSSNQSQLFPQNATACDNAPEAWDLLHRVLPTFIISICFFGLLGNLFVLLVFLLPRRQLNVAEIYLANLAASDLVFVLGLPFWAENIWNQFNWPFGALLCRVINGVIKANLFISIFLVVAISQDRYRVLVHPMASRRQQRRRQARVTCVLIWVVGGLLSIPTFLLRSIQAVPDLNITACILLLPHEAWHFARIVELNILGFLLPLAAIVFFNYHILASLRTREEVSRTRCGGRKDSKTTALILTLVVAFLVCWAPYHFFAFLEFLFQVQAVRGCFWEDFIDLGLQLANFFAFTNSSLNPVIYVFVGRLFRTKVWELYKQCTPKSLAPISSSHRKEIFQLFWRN
Summary of the method: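 Antagonism read as suppression of the Ca2+ rise in Fluo-4-loaded, hB1R-transfected CHO K1 cells when Lys-Des-Arg9-bradykinin (EC80) follows a 6–20 min compound preincubation. Maximal fluorescence counts, measured on FLIPR or Novostar, yield % inhibition relative to maximum; IC50 values come from concentration series run in duplicate or triplicate.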

SMILES	inhibition at 10 µM [%]
COc1cc(C)c(S(=O)(=O)Cc2noc(C(=O)NC3CCC(Cc4ccncc4)CC3)n2)c(C)c1 (stereo not drawn) [SC-19, 3-[[(4-Methoxy-2,6-dimethyl-phenyl)sulfonyl]-methyl]-N-[4-(pyridin-4-yl-methyl)-cyclohexyl]-[1,2,4]oxadiazol-5-carbonsäure amid]	99
COc1cc(C)c(S(=O)(=O)Cc2noc(CC(=O)N(C)C3CCN(C4CCC(C)CC4)CC3)n2)c(C)c1 (stereo not drawn) [SC-20, 2-[3-[[(4-Methoxy-2,6-dimethyl-phenyl)sulfonyl]-methyl]-[1,2,4]oxadiazol-5-yl]-N-methyl-N-[1-(4-methyl-cyclohexyl)-piperidin-4-yl]-acetamid]	100
COc1cc(C)c(S(=O)(=O)Cc2noc(C(=O)NC3CCC(c4ccncc4)CC3(C)C)n2)c(C)c1 (stereo not drawn) [SC-31, N-(2,2-Dimethyl-4-pyridin-4-yl-cyclohexyl)-3-[[(4-methoxy-2,6-dimethyl-phenyl)sulfonyl]-methyl]-[1,2,4]oxadiazol-5-carbonsäure amid]	97
COc1cc(C)c(S(=O)(=O)Cc2noc(CC(=O)N(C)C3CCC4(CCN(C)CC4)CC3(C)C)n2)c(C)c1 (stereo not drawn) [SC-33, 2-[3-[[(4-Methoxy-2,6-dimethyl-phenyl)sulfonyl]-methyl]-[1,2,4]oxadiazol-5-yl]-N-methyl-N-(4,4,9-trimethyl-9-azaspiro[5.5]undecan-3-yl)-acetamid]	100
COc1cc(C)c(S(=O)(=O)Cc2noc(CC(=O)NC3CCOCC3(C)C)n2)c(C)c1 (stereo not drawn) [SC-36, N-(3,3-Dimethyl-tetrahydro-pyran-4-yl)-2-[3-[[(4-methoxy-2,6-dimethyl-phenyl)sulfonyl]-methyl]-[1,2,4]oxadiazol-5-yl]-acetamid]	98
COc1cc(C)c(S(=O)(=O)Cc2noc(CC(=O)NC3CCN(C4CCOCC4)CC3(C)C)n2)c(C)c1 (stereo not drawn) [SC-39, N-(3,3-Dimethyl-1-tetrahydro-pyran-4-yl-piperidin-4-yl)-2-[3-[[(4-methoxy-2,6-dimethyl-phenyl)sulfonyl]-methyl]-[1,2,4]oxadiazol-5-yl]-acetamid]	100
COc1cc(C)c(S(=O)(=O)Cc2noc(CC(=O)NC3CCC(c4ccnc(OC)c4)CC3(C)C)n2)c(C)c1 (stereo not drawn) [SC-40, 2-[3-[[(4-Methoxy-2,6-dimethyl-phenyl)sulfonyl]-methyl]-[1,2,4]oxadiazol-5-yl]-N-[4-(2-methoxy-pyridin-4-yl)-2,2-dimethyl-cyclohexyl]-acetamid]	100
COc1cc(C)c(S(=O)(=O)Cc2noc(CC(=O)N3CCC(c4ccncc4)CC3)n2)c(C)c1 [SC-41, 2-[3-[[(4-Methoxy-2,6-dimethyl-phenyl)sulfonyl]-methyl]-[1,2,4]oxadiazol-5-yl]-1-(4-pyridin-4-yl-piperidin-1-yl)-ethanon]	97
COc1cc(C)c(S(=O)(=O)Cc2noc(CC(=O)N(C)C3CCN(c4cc(C)nc(C)n4)CC3)n2)c(C)c1 [SC-42, N-[1-(2,6-Dimethyl-pyrimidin-4-yl)-piperidin-4-yl]-2-[3-[[(4-methoxy-2,6-dimethyl-phenyl)sulfonyl]-methyl]-[1,2,4]oxadiazol-5-yl]-N-methyl-acetamid]	99
COc1cc(C)c(S(=O)(=O)Cc2noc(CC(=O)N(C)[C@H]3CCC[C@@H](N4CCN(C)CC4)C3)n2)c(C)c1 [SC-44, 2-[3-[[(4-Methoxy-2,6-dimethyl-phenyl)sulfonyl]-methyl]-[1,2,4]oxadiazol-5-yl]-N-methyl-N-[(1S,3R)-3-(4-methyl-piperazin-1-yl)-cyclohexyl]-acetamid]	100
COc1cc(C)c(S(=O)(=O)Cc2noc(CC(=O)N(C)C3CCN(C(=O)CCN4CCCCC4)CC3)n2)c(C)c1 [SC-46, 2-[3-[[(4-Methoxy-2,6-dimethyl-phenyl)sulfonyl]-methyl]-[1,2,4]oxadiazol-5-yl]-N-methyl-N-[1-(3-piperidin-1-yl-propanoyl)-piperidin-4-yl]-acetamid]	100

Continued, values first:

inhibition at 10 µM [%]	SMILES
97	COc1cc(C)c(S(=O)(=O)Cc2noc(C(=O)NC3CCC(c4ccncc4)CC3)n2)c(C)c1 (stereo not drawn) [SC-18, 3-[[(4-Methoxy-2,6-dimethyl-phenyl)sulfonyl]-methyl]-N-(4-pyridin-4-yl-cyclohexyl)-[1,2,4]oxadiazol-5-carbonsäure amid]
100	COc1cc(C)c(S(=O)(=O)Cc2noc(CC(=O)N(C)C3CCN(C4CCOCC4)CC3)n2)c(C)c1 [SC-21, 2-[3-[[(4-Methoxy-2,6-dimethyl-phenyl)sulfonyl]-methyl]-[1,2,4]oxadiazol-5-yl]-N-methyl-N-(1-tetrahydro-pyran-4-yl-piperidin-4-yl)-acetamid]
100	COc1cc(C)c(S(=O)(=O)Cc2noc(CC(=O)N(C3CC3)C3CCN(c4ccncc4)CC3)n2)c(C)c1 [SC-22, N-Cyclopropyl-2-[3-[[(4-methoxy-2,6-dimethyl-phenyl)sulfonyl]-methyl]-[1,2,4]oxadiazol-5-yl]-N-(1-pyridin-4-yl-piperidin-4-yl)-acetamid]
98	COc1cc(C)c(S(=O)(=O)Cc2noc(CC(=O)N(C)C3CCN(C(=O)c4ccncc4)CC3)n2)c(C)c1 [SC-27, 2-[3-[[(4-Methoxy-2,6-dimethyl-phenyl)sulfonyl]-methyl]-[1,2,4]oxadiazol-5-yl]-N-methyl-N-[1-(pyridin-4-carbonyl)-piperidin-4-yl]-acetamid]
98	COc1cc(C)c(S(=O)(=O)Cc2noc(C(=O)NCC3CCC(c4ccncc4)CC3)n2)c(C)c1 (stereo not drawn) [SC-30, 3-[[(4-Methoxy-2,6-dimethyl-phenyl)sulfonyl]-methyl]-N-[(4-pyridin-4-yl-cyclohexyl)-methyl]-[1,2,4]oxadiazol-5-carbonsäure amid]
98	COc1cc(C)c(S(=O)(=O)Cc2noc(CC(=O)NC3CCC(c4ccncc4)CC3(C)C)n2)c(C)c1 (stereo not drawn) [SC-32, N-(2,2-Dimethyl-4-pyridin-4-yl-cyclohexyl)-2-[3-[[(4-methoxy-2,6-dimethyl-phenyl)sulfonyl]-methyl]-[1,2,4]oxadiazol-5-yl]-acetamid]
100	COc1cc(C)c(S(=O)(=O)Cc2noc(CC(=O)NC3CCC(O)CC3(C)C)n2)c(C)c1 (stereo not drawn) [SC-35, N-(4-Hydroxy-2,2-dimethyl-cyclohexyl)-2-[3-[[(4-methoxy-2,6-dimethyl-phenyl)sulfonyl]-methyl]-[1,2,4]oxadiazol-5-yl]-acetamid]
100	COc1cc(C)c(S(=O)(=O)Cc2noc(CC(=O)NC3CCC(c4ccncc4)CC3)n2)c(C)c1 (stereo not drawn) [SC-37, 2-[3-[[(4-Methoxy-2,6-dimethyl-phenyl)sulfonyl]-methyl]-[1,2,4]oxadiazol-5-yl]-N-(4-pyridin-4-yl-cyclohexyl)-acetamid]
100	COc1cc(C)c(S(=O)(=O)Cc2noc(C(=O)N(C)[C@H]3CCC[C@@H](N4CCN(C)CC4)C3)n2)c(C)c1 [SC-43, 3-[[(4-Methoxy-2,6-dimethyl-phenyl)sulfonyl]-methyl]-N-methyl-N-[(1S,3R)-3-(4-methyl-piperazin-1-yl)-cyclohexyl]-[1,2,4]oxadiazol-5-carbonsäure amid]
99	Cc1cccc(Cl)c1S(=O)(=O)Cc1noc(C(=O)N(C)[C@H]2CCC[C@@H](N3CCN(C)CC3)C2)n1 [SC-49, 3-[[(2-Chlor-6-methyl-phenyl)sulfonyl]-methyl]-N-methyl-N-[(1S,3R)-3-(4-methyl-piperazin-1-yl)-cyclohexyl]-[1,2,4]oxadiazol-5-carbonsäure amid]
